Laboratory results from paper PMC8780741, “Integration of In Silico, In Vitro and In Situ Tools for the Preformulation and Characterization of a Novel Cardio-Neuroprotective Compound during the Early Stages of Drug Development” (Pharmaceutics, 2022).
Values after ≈ are worked out from the molar mass of the structure shown. Where two headings read alike, the source gives them in different places.

Columns and labels:
[1] = target: T1, P-glycoprotein transporter (MDR1) (Homo sapiens, UniProt P08183); assay: P-glycoprotein substrate assessment (B-A permeability MDCK-MDR1 vs MDCK); assay type: in vitro ADME; settings: B-A permeability higher in MDCK-MDR1 than in MDCK (p < 0.05)
T1 construct: expressed in transfected cells; host or cells: MDCK-MDR1 (transfected clone of Madin-Darby Canine Kidney cells)
T1 sequence (P08183 whole entry): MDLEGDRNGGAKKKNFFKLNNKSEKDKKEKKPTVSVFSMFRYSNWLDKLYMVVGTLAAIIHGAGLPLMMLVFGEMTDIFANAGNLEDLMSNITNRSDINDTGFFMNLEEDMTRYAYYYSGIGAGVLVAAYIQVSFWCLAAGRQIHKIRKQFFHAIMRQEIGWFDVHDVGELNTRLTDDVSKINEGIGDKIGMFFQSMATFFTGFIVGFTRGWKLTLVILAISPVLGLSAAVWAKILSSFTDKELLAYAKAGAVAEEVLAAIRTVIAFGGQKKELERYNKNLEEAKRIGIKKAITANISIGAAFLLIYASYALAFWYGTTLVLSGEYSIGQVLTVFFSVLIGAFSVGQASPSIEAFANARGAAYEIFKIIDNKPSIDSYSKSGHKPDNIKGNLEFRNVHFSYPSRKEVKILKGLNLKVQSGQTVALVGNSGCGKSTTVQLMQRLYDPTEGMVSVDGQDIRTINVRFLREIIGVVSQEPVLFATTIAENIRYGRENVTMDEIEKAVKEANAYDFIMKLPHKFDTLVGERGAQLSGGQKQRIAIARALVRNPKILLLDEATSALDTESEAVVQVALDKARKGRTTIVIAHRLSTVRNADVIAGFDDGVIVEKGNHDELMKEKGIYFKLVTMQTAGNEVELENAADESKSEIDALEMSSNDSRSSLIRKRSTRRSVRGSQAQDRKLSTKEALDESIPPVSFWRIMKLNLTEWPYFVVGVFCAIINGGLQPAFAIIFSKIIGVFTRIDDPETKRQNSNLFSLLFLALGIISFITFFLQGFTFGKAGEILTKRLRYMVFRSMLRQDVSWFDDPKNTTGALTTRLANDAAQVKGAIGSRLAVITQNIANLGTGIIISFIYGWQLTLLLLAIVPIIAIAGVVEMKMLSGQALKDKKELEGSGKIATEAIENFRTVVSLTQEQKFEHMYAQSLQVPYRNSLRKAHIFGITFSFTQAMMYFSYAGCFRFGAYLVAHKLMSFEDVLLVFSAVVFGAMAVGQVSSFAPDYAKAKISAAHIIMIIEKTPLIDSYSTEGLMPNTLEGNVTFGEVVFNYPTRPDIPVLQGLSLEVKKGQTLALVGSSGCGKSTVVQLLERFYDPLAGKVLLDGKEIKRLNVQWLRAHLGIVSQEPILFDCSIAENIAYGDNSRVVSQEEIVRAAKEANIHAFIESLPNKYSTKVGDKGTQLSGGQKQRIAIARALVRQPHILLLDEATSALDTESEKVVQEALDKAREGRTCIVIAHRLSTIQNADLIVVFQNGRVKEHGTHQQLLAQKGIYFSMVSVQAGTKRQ
Method: (§1) MDCK (Madin–Darby Canine Kidney) cells, their transfected clone MDCK-MDR1, and Caco-2 cells were grown in the modified Dulbecco Eagle medium added with L-glutamine, fetal bovine serum and penicillin−streptomycin. The number of cells seeded in transwells with a surface area of 4.2 cm^2 depended on the cell line: 250,000 cells/cm^2 for MDCK and Caco-2 and 150,000 cells/cm^2 for MDCK-MDR1. Experiments were performed between 7 and 9 days for MDCK and MDCK-MDR1 and between 19 and 21 for Caco-2 cells after seeding. Prior to drug placement, cell monolayer integrity was assessed by measuring transepithelial electrical resistance (TEER). Transport studies were performed on an orbital shaker at 37 °C and 50 rpm. Four samples of 200 μL were taken from the receptor side at 0, 15, 30, 60 and 90 min, and two samples from the donor compartment at the beginning and end of the experiment. A standard experiment was performed with the same buffer for the apical and basolateral compartments in the apical to basolateral (A-B) and basolateral to apical (B-A) directions. The drug concentration was 100 μM in all experiments and samples were analyzed immediately by HPLC. The retention time was 2.3 min at maximum wavelengths (λmax = 260 nm). […] The lower limit of quantitation of JM-20 was adequate to interpolate the values obtained in the samples. […]

[2] = Thermodynamic solubility, shake-flask saturation method, and dose number; assay type: physicochemical; settings: for solubility: USP buffer solution; for Do (dose number): D = 140 mg, 250 mL
Method: For the solubility study, six buffer solutions (pH 1.2, 3.0, 4.0, 4.5, 6.8 and 7.4) were prepared following the protocols published in the USP XXXVIII, United States Pharmacopoeia, as described above.
Solubility experiments for JM-20 were carried out according to the main regulatory guidelines for biowaivers. The tests were performed at the three recommended pH values (pH 1.2, 4.5 and 6.8) as well as pH […], 4.0 and 7.4 (USP buffer formulations). The shake-flask saturation method proposed by Baka et al. was used in the solubility study and the recommendations of Avdeef et al. were followed to improve the quality of the solubility data. The temperature was regulated at 37 °C. Equilibration times were 6 h stirring + 18 h sedimentation. At the end of equilibration, the two phases were separated by careful decantation. The samples were analyzed with a Thermo Fisher UV-Vis Spectrophotometer (λmax = 262 nm). A linear range of 2–20 μg/mL was obtained (r^2 > 0.99). Once the solubility range was determined, the dose number (Do) was calculated following Equation (1) (1) Do=D/Vo/Cs where D is the highest strength or highest dose administered (mg) according to FDA or EMA criteria, Vo is the volume of water ([…]).

[3] = Apparent permeability across Caco-2 monolayers; assay type: in vitro ADME; settings: human
Method: MDCK (Madin–Darby Canine Kidney) cells, their transfected clone MDCK-MDR1, and Caco-2 cells were grown in the modified Dulbecco Eagle medium added with L-glutamine, fetal bovine serum and penicillin−streptomycin. The number of cells seeded in transwells with a surface area of 4.2 cm^2 depended on the cell line: 250,000 cells/cm^2 for MDCK and Caco-2 and 150,000 cells/cm^2 for MDCK-MDR1. Experiments were performed between 7 and 9 days for MDCK and MDCK-MDR1 and between 19 and 21 for Caco-2 cells after seeding. Prior to drug placement, cell monolayer integrity was assessed by measuring transepithelial electrical resistance (TEER). Transport studies were performed on an orbital shaker at 37 °C and 50 rpm. Four samples of 200 μL were taken from the receptor side at 0, 15, 30, 60 and 90 min, and two samples from the donor compartment at the beginning and end of the experiment. A standard experiment was performed with the same buffer for the apical and basolateral compartments in the apical to basolateral (A-B) and basolateral to apical (B-A) directions. The drug concentration was 100 μM in all experiments and samples were analyzed immediately by HPLC. The retention time was 2.3 min at maximum wavelengths (λmax = 260 nm). The conditions used for HPLC analyses were: mobile phase composed of a mixture of 50% H2O (95% H2O + 0.5% trifluoroacetic) and another 50% HPLC-grade methanol. The stationary phase composed of a Phenomenex® KJ0-4282 column, with two 2 μm filters filled with C-18 microparticles of 40 μm size and a Nova Pak C-18 stainless-steel column of 150 mm length. […] The lower limit of quantitation of JM-20 was adequate to interpolate the values obtained in the samples.
The apparent permeability coefficient was calculated according to the following Equation (2):(2) Creceiver,t=Qtotal/Vreceiver+Vdonor+Creceiver,t−1·f−Qtotal/Vreceiver+Vdonor·e^−Peff0,1·S·1/Vreceiver+1/Vdonor·Δt where Creceiver,t is the concentration of the drug in the receiver compartment at the time t, Qtotal is the total amount of drug in receiver and donor chambers, Vreceiver and Vdonor are the volumes of receiver and donor chamber, respectively, Creceiver,t−1 is the concentration of the drug in receiver compartment at the previous time, f is the replacement dilution factor of the sample, S is the surface area of the monolayer, Δt is the time interval and Peff is the coefficient of permeability, as was described by Mangas-Sanjuan et al. All calculations were developed in Microsoft® Excel (2018).

[4] = Dissociation constant (pKa) by UV-spectrophotometric method; assay type: physicochemical; settings: aqueous buffer solutions
Method: The pH measurements were performed using a sensiON™ (PH31) pH meter. Standard solutions of JM-20 ([…] were prepared adding 0.2 mL of the stock solution in 9.8 mL of each buffer. UV-VIS spectra were recorded on a UV-Vis Spectrophotometer (Thermo Fisher GENESYS™ 10S, Shanghai, China) between 200 and 400 nm (2 nm of resolution). All spectrophotometric data were processed in Microsoft Excel (2018).
The experimental pKa was determined using the spectrophotometric method proposed by Salgado et al.. The absorbance spectra of the JM-20 were acquired at different pH levels. The wavelengths of maximum absorbance were determined at each pH. Using a plot of observed absorbance versus pH at these analytical wavelengths (262, 316 and 355 nm), the pKa values were calculated. To determine these points, the linear equations of the two points closest to the crossing at each curve were solved. The whole procedure was carried out in triplicate and at room temperature (23 ± 2 °C).

[5] = Apparent permeability across MDCK-MDR1 monolayers; assay type: in vitro ADME, Canine; settings: dog, 37 °C, stirring at 50 rpm
Method: as §1

[6] = parameters: method as in earlier work; settings: potentiometric titration; cited from earlier work
[7] = parameters: method as in earlier work; settings: pH 4.5 and 6.8, 24 h, 37 ± 1°C; cited from earlier work
[8] = parameters: method as in product owner (technical report); settings: ref product owner (technical report); cited from earlier work

With `CCOC(=O)C1=C(C)NC2=C(C=Nc3ccccc3N2)C1c1ccccc1[N+](=O)[O-]` (centres unmarked) [JM-20, 3-ethoxycarbonyl-2-methyl-4-(2-nitrophenyl)-4,11-dihydro-1H-pyrido [2,3-b][1,5] benzodiazepine] the “Substrate of the P-glycoprotein transporter (MDR1)” value [1] was “substrate of the P-glycoprotein transporter (MDR1)”, the solubility ([2]; aqueous buffer, thermodynamic from solid, buffer pH 1.2, 37 °C, shake-flask, read-out: Solubility ± SD) was 9.18 ± 0.16 µg/mL (≈ 22.7 µM) and the solubility ([2]; aqueous buffer, thermodynamic from solid, buffer pH 3.5, 37 °C, shake-flask, read-out: Solubility ± SD) was 12.7 ± 0.83 µg/mL (≈ 31.5 µM). The solubility ([2]; aqueous buffer, thermodynamic from solid, buffer pH 4.0, 37 °C, shake-flask, read-out: Solubility ± SD) was 25.4 ± 0.66 µg/mL (≈ 62.8 µM), the solubility ([2]; aqueous buffer, thermodynamic from solid, buffer pH 4.5, 37 °C, shake-flask, read-out: Solubility ± SD) was 30.8 ± 1.29 µg/mL (≈ 76.3 µM) and the solubility ([2]; aqueous buffer, thermodynamic from solid, buffer pH 6.8, 37 °C, shake-flask, read-out: Solubility ± SD) was 11.3 ± 0.69 µg/mL (≈ 27.9 µM). For the same compound, the solubility ([2]; aqueous buffer, thermodynamic from solid, buffer pH 7.4, 37 °C, shake-flask, read-out: Solubility ± SD) was 12.6 ± 0.36 µg/mL (≈ 31.3 µM), the solubility ([2]; pH 1.2, acidic pH, read-out: Solubility at acidic pH (abstract)) was 9.18 ± 0.16 µg/mL (≈ 22.7 µM) and the “Dose number (Do)” value ([2]; at the different pH values, dose 140 mg) was “greater than 1”. The “D0 (dose number)” value ([2]; calculated with the lowest aqueous solubility) was 61, the “Do (dose number)” value ([2]; pH 1.2) was 61.00 and the “Do (dose number)” value ([2]; pH 3.5) was 44.03. For the same compound, the “Do (dose number)” value ([2]; pH 4.0) was 22.06, the “Do (dose number)” value ([2]; pH 4.5) was 18.16 and the “Do (dose number)” value ([2]; pH 6.8) was 49.56. The “Do (dose number)” value ([2]; pH 7.4) was 44.30, the Papp A→B at 90 min, 100 µM ([3]; Caco-2, Caco-2, 100 μM, 37 °C, stirring at 50 rpm) was 38.3 ± 1.8 ×10⁻⁶ cm/s and the Papp at 90 min, 100 µM ([3]; Caco-2, read-out: Permeability, Caco-2 value (abstract)) was 38 ×10⁻⁶ cm/s. It also gave a Papp B→A at 90 min, 100 µM ([3]; Caco-2, 100 μM, 37 °C, stirring at 50 rpm) of 8.5 ± 2.4 ×10⁻⁶ cm/s, an efflux ratio at 90 min, 100 µM ([3]; Caco-2 bidirectional transport) of 0.13 and a pKa ([4]; pH 2 to 12, UV-spectrophotometric, 23 °C, ionic strength approximately 0.1 M, read-out: pKa1 (base)) of 5.48 ± 0.19. The pKa ([4]; pH 2 to 12, UV-spectrophotometric, 23 °C, ionic strength approximately 0.1 M, read-out: pKa2 (acid)) was 10.5 ± 0.17, the pKa ([4]; pH 2 to 12, measured pKa transformed to 37 °C (estimated), read-out: pKa1 at 37 °C) was 5.54 and the pKa ([4]; pH 2 to 12, measured pKa transformed to 37 °C (estimated), read-out: pKa2 at 37 °C) was 10.3. For the same compound, the Papp A→B at 90 min, 100 µM [5] was 21.7 ± 2.2 ×10⁻⁶ cm/s, the Papp B→A at 90 min, 100 µM [5] was 9.6 ± 0.5 ×10⁻⁶ cm/s and the pKa [6] was 5.25. For the same compound, the “Qualitative stability in aqueous medium” value [7] was “some degradation” and the “Stability in DMSO and absolute ethanol” value [8] was “stable”.
